# Results from patent US7045311B2, “Whole cell assay systems for cell surface proteases” (Monogram Biosciences, Inc., priority 2001, dated 2006).
# “Also recorded” adds a separate entry of the source.
# Key:
# Format in all cases: cell-based
# ADAM 17 = biological target: T1, ADAM 17 (Homo sapiens, UniProt P78536); assay: Whole cell ADAM 17 assay: cleavage of TNF-α-FL by THP-1 cells, capillary electrophoresis; settings: for formation of TNF-α-FL cleavage product (ADAM 17 activity): TNF-α-FL substrate, reagent added to the assay
# T1 construct: endogenous in cells; host or cells: THP-1 cells (whole, live)
# Method: A substrate for a cell surface protease, typically an ADAM, or preferably a plurality of substrates for different proteases, each having a distinct detectable label, is added to a live cell suspension in a buffer. Typically, about 1.5×10^5 cells are used in 50 μL medium. […] The cells are washed three times on ice with buffer (lacking the protein and anti-proteases noted below) before use. A suitable buffer consists of 50 mM HEPES (pH 7.2), 150 mM NaCl, 2 mM MgCl2, 0.1% human serum albumin (HSA), with serine and thiol protease inhibitor cocktail (Roche Diagnostics). Depending on the peptide, nonspecific binding may be blocked by addition of a protein selected from human serum albumin (HSA), bovine serum albumin (BSA), casein (CAS), gamma globulins (GG), and fetal bovine serum (FBS).
# All component additions are done on ice, and the tubes are then transferred to a temperature controlled water bath for incubation. The assay mixture is incubated at a fixed temperature for a fixed time, e.g., 37° C. for 1 hr. Following incubation, the tubes are removed from the incubator and placed again on ice.
# For experiments employing additional reagents, such as a GPCR agonist or a protein kinase C stimulator such as PMA (phorbol myristate acetate), the additional reagent is added at the beginning of the incubation period.
# A suitable separation medium consists of 1% PEO in 50 mM HEPES (pH 7.2). […] In a typical separation, detection occurs at 5 mm down from the injection site (cross), an argon-ion laser is used as the excitation source, PMT is typically set at 600V to 900V, and gain is set to 5 μA/V at a frequency of 10 Hz. The 10× objective is used, and the sampling rate is 200/sec. Well volumes are typically 2 μL.
# For peak analysis, time normalized peak areas for peptide cleavage products are divided by time normalized fluorescein (or aminomethyl fluorescein) peak areas to arrive at the product/fluorescein normalized area ratios.
# A TNF-α peptide fragment, known to be a substrate for ADAM 17, was labeled at the N-terminus with fluorescein. […] After a one-hour incubation, aminomethyl fluorescein was added as an electrophoretic marker, and the reaction supernatant was separated by capillary electrophoresis.
# ADAM 10 [1] = assay: Whole cell ADAM 10 assay in HEK-293 cells
# Method: (§1) For experiments involving GPCR's, adherent cells are plated into 96-well plates at 5×10^4 cells/well and serum starved for 18–24 hr prior to use. A suitable buffer comprises 10 mM HEPES (pH 7.2), 1× HANKS, 0.1% human serum albumin (HSA), and serine/thiol protease inhibitor cocktail (Roche Diagnostics). Cells are washed three times with the HANKS-HEPES buffer, lacking protein and anti-protease, prior to use.
# (§2) The products of the assays are conveniently analyzed by capillary electrophoresis on a microfluidic LabCard™ (ACLARA Biosciences, Inc.). Typically, a LabCard™ containing a 64-channel array is used, but no special changes are needed to run the assay on a 96- or 32-channel card, or other configuration.
# (§3) The configuration of channels for each separation on a LabCard is shown schematically in FIG. 13. The channel network may be a double-T network as shown or a cross network, i.e. where wells 110 and 114 in the figure are directly opposed. A suitable separation medium consists of 1% PEO in 50 mM HEPES (pH 7.2). In a typical separation, sample is injected from well 110 to well 114 at an injection voltage of 550V for e.g. 35 sec. Separation is carried out from well 104 to well 106 for e.g. 20 sec., with the voltages of 0V, 380V, 800V, and 380V in wells 104, 110, 106, and 114, respectively, resulting in a field strength of 455V/cm. […]
# ADAM 10 [2] = assay: Whole cell ADAM 10 assay: cleavage of CD40L-FL by Rat-1 cells with GPCR ligands; settings: CD40L-FL substrate
# Method: as §1, §2, §3
# T1 sequence (P78536 215-824): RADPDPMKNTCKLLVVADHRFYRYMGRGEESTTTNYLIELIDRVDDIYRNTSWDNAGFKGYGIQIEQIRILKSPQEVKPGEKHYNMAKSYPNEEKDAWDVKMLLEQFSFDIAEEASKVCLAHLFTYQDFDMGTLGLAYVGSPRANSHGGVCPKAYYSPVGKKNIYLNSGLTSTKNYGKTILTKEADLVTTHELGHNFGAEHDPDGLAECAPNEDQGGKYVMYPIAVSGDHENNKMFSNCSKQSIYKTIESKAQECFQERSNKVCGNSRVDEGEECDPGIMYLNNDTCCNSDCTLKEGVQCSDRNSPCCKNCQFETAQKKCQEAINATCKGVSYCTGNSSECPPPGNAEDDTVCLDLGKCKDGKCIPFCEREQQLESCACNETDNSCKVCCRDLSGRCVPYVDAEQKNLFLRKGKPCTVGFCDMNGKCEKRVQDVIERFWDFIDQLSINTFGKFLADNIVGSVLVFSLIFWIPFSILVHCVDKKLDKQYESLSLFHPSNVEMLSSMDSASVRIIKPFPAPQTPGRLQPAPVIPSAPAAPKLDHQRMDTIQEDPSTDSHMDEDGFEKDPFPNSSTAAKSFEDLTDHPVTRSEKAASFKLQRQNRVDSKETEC
Molecule,formation of TNF-α-FL cleavage product (ADAM 17 activity) (ADAM 17),ADAM 10 activity (ADAM 10 [1]),ADAM 10 activity (amount of CD40L-FL cleavage product) (ADAM 10 [2]),other results
"CCCCCCCCCCCCCC(=O)O[C@@H]1[C@@H](C)[C@@]2(O)[C@@H](C=C(CO)C[C@]3(O)C(=O)C(C)=C[C@@H]23)[C@@H]2C(C)(C)[C@]12OC(C)=O [PMA, phorbol myristate acetate]",significantly lower; also recorded: significantly reduced,decline,,
CNC(=O)[C@H](Cc1c[nH]c2ccccc12)NC(=O)[C@@H](CC(=O)NO)CC(C)C [GM6001],completely inhibited,,,
OC[C@H]1O[C@@](CO)(O[C@H]2O[C@H](CO)[C@@H](O)[C@H](O)[C@H]2O)[C@@H](O)[C@@H]1O [sucrose],,,,TNF-α-FL cleavage activity on addition of sucrose in the presence of PMA (ADAM 17; 450 mM sucrose with PMA): restored the activity
lysophosphatidic acid [LPA],,,increased,
endothelin-1: known ligand for GPCRs (CSCSSLMDKECVYFCHLDIIW),,,decreased,
C[N+](C)(C)CCOC(N)=O [carbachol],,activated,,
